# Source: ChEMBL document CHEMBL1201862, “PubChem BioAssay data set” (2004)
#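 Tested at 5 concentrations; 48 h exposure; 96-well plates; endpoints linearly interpolated, else capped at highest concentration. Here, GI50 denotes the concentration required for 50% inhibition of growth.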 Activity calls are given as the source filed them. No stated cut-off is given here; in the data, active = GI50 up to about 1.1 µM and inactive = higher.
# What was measured:
# Assay in all cases: inhibition of tumour cell growth, NCI panel, 48 h
# BT-549 = test system: BT-549
# NCI-H460 = test system: NCI-H460
# RPMI-8226 = test system: RPMI-8226
# NCI-H522 = test system: NCI-H522
# U-251 = test system: U-251
# MOLT-4 = test system: MOLT-4
# DU-145 = test system: DU-145
# NCI/ADR-RES = test system: NCI/ADR-RES
# NCI-H23 = test system: NCI-H23
# HCT-116 = test system: HCT-116
# SF-268 = test system: SF-268
# OVCAR-5 = test system: OVCAR-5
# UACC-257 = test system: UACC-257
# K562 = test system: K562
# KM12 = test system: KM12
# HOP-62 = test system: HOP-62
# SN12C = test system: SN12C
# SF-539 = test system: SF-539
# SNB-75 = test system: SNB-75
# SK-OV-3 = test system: SK-OV-3
Structure (SMILES),GI50 (BT-549),GI50 (NCI-H460),GI50 (RPMI-8226),GI50 (NCI-H522),GI50 (U-251),GI50 (MOLT-4),GI50 (DU-145),GI50 (NCI/ADR-RES),GI50 (NCI-H23),GI50 (HCT-116),GI50 (SF-268),GI50 (OVCAR-5),GI50 (UACC-257),GI50 (K562),GI50 (KM12),GI50 (HOP-62),GI50 (SN12C),GI50 (SF-539),GI50 (SNB-75),GI50 (SK-OV-3)
Cc1cnc2cc(Cl)ccc2c1SCC(=O)O,> 100 µM (inactive),> 100 µM (inactive),> 100 µM (inactive),> 100 µM (inactive),> 100 µM (inactive),> 100 µM (inactive),> 100 µM (inactive),> 100 µM (inactive),> 100 µM (inactive),> 100 µM (inactive),> 100 µM (inactive),> 100 µM (inactive),> 100 µM (inactive),> 100 µM (inactive),> 100 µM (inactive),> 100 µM (inactive),> 100 µM (inactive),–,–,–
O=C(O)CSc1ncccc1[N+](=O)[O-],> 100 µM (inactive),> 100 µM (inactive),–,> 100 µM (inactive),> 100 µM (inactive),> 100 µM (inactive),> 100 µM (inactive),> 100 µM (inactive),> 100 µM (inactive),> 100 µM (inactive),> 100 µM (inactive),> 100 µM (inactive),> 100 µM (inactive),> 100 µM (inactive),> 100 µM (inactive),> 100 µM (inactive),> 100 µM (inactive),> 100 µM (inactive),> 100 µM (inactive),> 100 µM (inactive)
CC(=O)NC(Cc1c[nH]c2ccccc12)C(=O)O (stereo not given),> 100 µM (inactive),> 100 µM (inactive),> 100 µM (inactive),> 100 µM (inactive),> 100 µM (inactive),–,> 100 µM (inactive),> 100 µM (inactive),> 100 µM (inactive),> 100 µM (inactive),> 100 µM (inactive),> 100 µM (inactive),26.2 µM (inactive),> 100 µM (inactive),> 100 µM (inactive),> 100 µM (inactive),> 100 µM (inactive),–,–,> 100 µM (inactive)
CC(C)(C)c1ccc2c(c1)C#Cc1cc3c(cc1OCCCO2)C#Cc1cc(C(C)(C)C)ccc1OCCCO3,1.72 µM (inactive),> 100 µM (inactive),> 100 µM (inactive),> 100 µM (inactive),> 100 µM (inactive),> 100 µM (inactive),> 100 µM (inactive),10.6 µM (inactive),2.2 µM (inactive),> 100 µM (inactive),> 100 µM (inactive),> 100 µM (inactive),> 100 µM (inactive),> 100 µM (inactive),> 100 µM (inactive),> 100 µM (inactive),> 100 µM (inactive),> 100 µM (inactive),–,> 100 µM (inactive)
CCN1CCC(O)(c2ccc(Oc3ccccc3)cc2)C(C(=O)c2ccc(Oc3ccccc3)cc2)C1 (stereo not given),10.5 µM (inactive),3.85 µM (inactive),2.46 µM (inactive),19.6 µM (inactive),11.6 µM (inactive),13 µM (inactive),14.3 µM (inactive),16.2 µM (inactive),13.4 µM (inactive),9.27 µM (inactive),16.3 µM (inactive),15.4 µM (inactive),12.7 µM (inactive),13.7 µM (inactive),4.85 µM (inactive),11.9 µM (inactive),15.3 µM (inactive),8.45 µM (inactive),14.5 µM (inactive),–
COc1ccc(C(OC(=O)[C@H](O[Si](C)(C)C(C)(C)C)[C@@H](NC(=O)c2ccccc2)c2ccccc2)c2ccc(OC)cc2)cc1,> 100 µM (inactive),> 100 µM (inactive),< 0.01 µM (active),> 100 µM (inactive),> 100 µM (inactive),52 µM (inactive),> 100 µM (inactive),> 100 µM (inactive),> 100 µM (inactive),> 100 µM (inactive),> 100 µM (inactive),> 100 µM (inactive),> 100 µM (inactive),24.8 µM (inactive),> 100 µM (inactive),> 100 µM (inactive),> 100 µM (inactive),> 100 µM (inactive),> 100 µM (inactive),–
O=C(N[C@H]1CCC[C@H]1C(=O)Nc1ccc(C(F)(F)F)cc1)OCc1ccccc1,> 100 µM (inactive),> 100 µM (inactive),> 100 µM (inactive),54.2 µM (inactive),> 100 µM (inactive),> 100 µM (inactive),> 100 µM (inactive),> 100 µM (inactive),> 100 µM (inactive),> 100 µM (inactive),> 100 µM (inactive),> 100 µM (inactive),> 100 µM (inactive),> 100 µM (inactive),> 100 µM (inactive),> 100 µM (inactive),> 100 µM (inactive),> 100 µM (inactive),–,> 100 µM (inactive)
Clc1nc(Nc2nc3ccccc3[nH]2)nc(Cl)c1Cc1ccccc1,> 100 µM (inactive),89.1 µM (inactive),> 100 µM (inactive),37 µM (inactive),29.6 µM (inactive),> 100 µM (inactive),> 100 µM (inactive),> 100 µM (inactive),> 100 µM (inactive),> 100 µM (inactive),49.4 µM (inactive),> 100 µM (inactive),> 100 µM (inactive),> 100 µM (inactive),81.7 µM (inactive),–,59.4 µM (inactive),31.2 µM (inactive),17.9 µM (inactive),> 100 µM (inactive)
N#CC1=C(S)N(C2OC(CO)C(O)C(O)C2O)C(c2ccccc2)=CC1c1cccs1 (stereo not given),16.1 µM (inactive),17.7 µM (inactive),26.3 µM (inactive),18.1 µM (inactive),20 µM (inactive),22.7 µM (inactive),> 10 µM (inactive),> 100 µM (inactive),28.1 µM (inactive),26.3 µM (inactive),24.8 µM (inactive),51.1 µM (inactive),21.7 µM (inactive),31.1 µM (inactive),18.8 µM (inactive),22.1 µM (inactive),14.7 µM (inactive),18.6 µM (inactive),20.5 µM (inactive),–
COCCNC1CCC(=O)c2[nH]c3ccccc3c21 (stereo not given),> 100 µM (inactive),> 100 µM (inactive),> 100 µM (inactive),> 100 µM (inactive),> 100 µM (inactive),> 100 µM (inactive),> 100 µM (inactive),> 100 µM (inactive),> 100 µM (inactive),> 100 µM (inactive),> 100 µM (inactive),> 100 µM (inactive),> 100 µM (inactive),> 100 µM (inactive),> 100 µM (inactive),> 100 µM (inactive),> 100 µM (inactive),> 100 µM (inactive),> 100 µM (inactive),–
CSc1nc2ccccc2c(=O)n1/N=C1\C(=O)N(CN2CCOCC2)c2ccc(Cl)cc21,15.6 µM (inactive),15.2 µM (inactive),–,31.1 µM (inactive),32.5 µM (inactive),10.9 µM (inactive),18.5 µM (inactive),> 100 µM (inactive),21.8 µM (inactive),22.4 µM (inactive),36.9 µM (inactive),26 µM (inactive),19.8 µM (inactive),5.77 µM (inactive),29.5 µM (inactive),34.3 µM (inactive),48.2 µM (inactive),26.7 µM (inactive),41.5 µM (inactive),30.6 µM (inactive)
Nc1nc(NCC2(CO)CC2)cc(=O)[nH]1,> 100 µM (inactive),> 100 µM (inactive),> 100 µM (inactive),> 100 µM (inactive),> 100 µM (inactive),> 100 µM (inactive),> 100 µM (inactive),> 100 µM (inactive),> 100 µM (inactive),> 100 µM (inactive),> 100 µM (inactive),> 100 µM (inactive),> 100 µM (inactive),> 100 µM (inactive),> 100 µM (inactive),> 100 µM (inactive),> 100 µM (inactive),–,> 100 µM (inactive),> 100 µM (inactive)
CC(C)(C)OC(=O)[N+](=N)C(=O)C1CCC(=O)N1C(=O)OCc1ccccc1 (stereo not given),> 100 µM (inactive),> 100 µM (inactive),> 100 µM (inactive),> 100 µM (inactive),> 100 µM (inactive),> 100 µM (inactive),> 100 µM (inactive),> 100 µM (inactive),> 100 µM (inactive),> 100 µM (inactive),> 100 µM (inactive),> 100 µM (inactive),–,> 100 µM (inactive),> 100 µM (inactive),> 100 µM (inactive),> 100 µM (inactive),–,> 100 µM (inactive),> 100 µM (inactive)
COc1ccc(/C=C2\CCCCCC2=O)cc1,> 100 µM (inactive),> 100 µM (inactive),> 100 µM (inactive),> 100 µM (inactive),> 100 µM (inactive),> 100 µM (inactive),> 100 µM (inactive),> 100 µM (inactive),> 100 µM (inactive),> 100 µM (inactive),> 100 µM (inactive),> 100 µM (inactive),> 100 µM (inactive),> 100 µM (inactive),> 100 µM (inactive),> 100 µM (inactive),> 100 µM (inactive),> 100 µM (inactive),–,> 100 µM (inactive)
COc1ccc([C@@]23Oc4cc(OC)cc(OC)c4[C@]2(O)[C@H](O)[C@H](C(=O)N(C)C)[C@H]3c2ccccc2)cc1 [ROCAGLAMIDE],0.0583 µM (active),0.0027 µM (active),0.00555 µM (active),0.0104 µM (active),0.00605 µM (active),0.00192 µM (active),0.00809 µM (active),0.0306 µM (active),0.00885 µM (active),0.00316 µM (active),0.00849 µM (active),0.00991 µM (active),0.0184 µM (active),0.00237 µM (active),0.00294 µM (active),0.00973 µM (active),0.00815 µM (active),–,0.00935 µM (active),0.00575 µM (active)
